Patent US12472261B2, “Conjugated inhibitors of DNA damage response” (ProLynx LLC, priority 2019, dated 2025)

Assays:
[1] = system: MX-1 human triple-negative breast carcinoma cell line; assay: Efficacy of PEG-talazoparib conjugates in murine MX-1 xenografts (Example 9); type: in vivo, mice; conditions: MX-1 tumors
Protocol: The MX-1 human triple-negative breast carcinoma cell line was obtained from Charles River Labs (Frederick, Md).
Tumor xenografts were established by subcutaneous injection with MX-1 tumor cells (2×10^6 cells in 100 μl of serum free medium mixed 1:1 with Matrigel) into the right flank of female NCr nude mice. When tumor xenografts reached 1000-1500 mm^3 in donor mice, they were resected, divided into even-size fragments (approximately 2.5×2.5 mm), embedded in Matrigel and re-implanted via subcutaneous trocar implantation in receiver mice.
Solutions of talazoparib (50 μM) were prepared as by adding a solution of talazoparib in DMSO (55 mM, 454 μL) to the oral dosing buffer consisting of 10% dimethylacetamide, 6% solutol, and 84% PBS. Talazaparib content was determined by ε310nm=9872 M^−1cm^−1 in 10% dimethylacetamide, 6% solutol, and 84% PBS Solutions were delivered p.o. at 8.5-19 mL/kg to deliver 0.4 to 0.9 μmol/kg talazoparib. Solutions of PEG-talazoparib (Example 1, R^1=MeSO2, R^7=MeO(CH2)2) containing up to 8 mM talazoparib (2 mM PEG˜[talazoparib]4) were prepared in isotonic acetate (pH 5), sterile filtered through a 0.2 μM syringe filter, and TLZ content was determined by ε310nm=9872 M^−1cm^−1 in 10% dimethylacetamide, 6% solutol, and 84% PBS. Doses were delivered IP at ˜15 mL/kg mL/kg to deliver 15-120 μmol drug/kg.
Mice bearing MX-1 tumors were dosed when tumors reached ˜100-300 mm^3 in size. Dosing solutions were administered as indicated above. Tumor volumes (caliper measurement: 0.5×(length×width)) and body weights were measured twice weekly. […] Mice bearing large tumors were dosed when tumors reached 1000-3000 mm^3.
Progressive disease (PD) was classified as PD1 or PD2 based on the tumor growth delay (TGD) values calculated as the number of days to event. For each mouse, TGD was calculated by dividing the time to event by the median time to event in the control group. […] Median times to event were estimated based on the Kaplan-Meier event-free survival distribution.

[2] = system: BRCA1-deficient MX-1 tumors; type: in vivo
DLD-1 BRCA2^−/− = conditions: daily TLZ×21 days
KT-10 tumors = conditions: KT-10, 0.1 mg/kg TLZ daily dosing; reference (26); cited from earlier work
DLD-1 BRCA2^wt/wt = assay: Efficacy in murine DLD-1 BRCA2^wt/wt xenografts (Example 10); conditions: QD oral

Cn1ncnc1[C@H]1c2n[nH]c(=O)c3cc(F)cc(c23)N[C@@H]1c1ccc(F)cc1 [TLZ, talazoparib]
MCR (number of mice, Houghton analysis) ([1]; dose 0.4 μmol/kg): 1 | PD2 (number of mice, Houghton analysis) ([1]; dose 0.4 μmol/kg): 4 | CR (number of mice, Houghton analysis) ([1]; dose 0.7 μmol/kg): 2 | MCR (number of mice, Houghton analysis) ([1]; dose 0.7 μmol/kg): 1 | PR (number of mice, Houghton analysis) ([1]; dose 0.7 μmol/kg): 2 | duration of growth suppression ([2]; MX-1, daily oral 0.4 μmol/kg (0.15 mg/kg)): ~3 wks | median EFS ([2]; MX-1, daily oral 0.4 μmol/kg, event = doubling of initial tumor volume): 35 days | increase in median event free survival (DLD-1 BRCA2^−/−): 11 fold | response of KT-10 to daily TLZ (KT-10 tumors): maintained CRs over 12 wks | median EFS of treated animals vs controls (DLD-1 BRCA2^wt/wt): no increase | tumor response (DLD-1 BRCA2^wt/wt): resistant
